Measurements: patent US8859574B2 (IRM LLC, priority 2008, dated 2014)

What follows are molecules tested against T1, IGF-1R Ba/F3 (Homo sapiens, UniProt P08069) (assay: Ba/F3 Cell Viability Inhibition Assay (IGF-1R Ba/F3)). Conditions: Tel-TK transformed Ba/F3 cells, 48 hours, Britelite luminescence.
T1 construct: fused on or other part: TEL- (or BCR-) IGF-1R in Ba/F3: the kinase part holds the site
T1 sequence (P08069 999-1274 limits assumed): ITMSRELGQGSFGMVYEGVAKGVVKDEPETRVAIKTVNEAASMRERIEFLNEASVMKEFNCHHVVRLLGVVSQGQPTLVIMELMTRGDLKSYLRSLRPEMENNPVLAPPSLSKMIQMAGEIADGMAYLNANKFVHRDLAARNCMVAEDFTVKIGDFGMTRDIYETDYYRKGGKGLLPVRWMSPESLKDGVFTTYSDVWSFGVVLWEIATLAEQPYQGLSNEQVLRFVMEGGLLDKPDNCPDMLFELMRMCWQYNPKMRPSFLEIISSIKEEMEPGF
Type: cell-based, murine
Method in brief: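 IL-3-independent murine Ba/F3 cells transformed with a TEL/BCR-fused IGF-1R kinase were seeded at 3750 cells/well and exposed to serially diluted compound for 48 h at 37 °C. Viability was read by Britelite luminescence. IC50 is the concentration giving 50% of DMSO-control viability, from a logistic fit.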
Molecule `COc1cc(Nc2ncc(Cl)c(Nc3cc(C)[nH]n3)n2)c(C)cc1C1CCN(CC(N)=O)CC1` [Compound 262, 2-(4-(4-(5-chloro-4-(5-methyl-1H-pyrazol-3-ylamino)pyrimidin-2-ylamino)-2-methoxy-5-methylphenyl)piperidin-1-yl)acetamide] has an IC50 of 0.019 µM. `Cc1cc(Nc2nc(Nc3cc(C)c(C4CCN(C(=O)CN5CCC5)CC4)cc3F)ncc2Cl)n[nH]1` [Compound 98, 2-(azetidin-1-yl)-1-(4-(4-(5-chloro-4-(5-methyl-1H-pyrazol-3-ylamino)pyrimidin-2-ylamino)-5-fluoro-2-methylphenyl)piperidin-1-yl)ethanone] was tested, and the IC50 was 0.064 µM. `Cc1cc(Nc2nc(Nc3cc(C)c([C@H]4CCN[C@H](C)C4)cc3F)ncc2Cl)n[nH]1` (relative stereo) [Compound 279, 5-chloro-N2-(2-fluoro-5-methyl-4-((trans)-2-methylpiperidin-4-yl)phenyl)-N4-(5-methyl-1H-pyrazol-3-yl)pyrimidine-2,4-diamine] gave an IC50 of 0.064 µM. `Cc1cc(Nc2nc(Nc3cc(C(F)(F)F)c(C4CCNCC4)cc3F)ncc2Cl)n[nH]1` [Compound 253, 5-chloro-N2-(2-fluoro-4-(piperidin-4-yl)-5-(trifluoromethyl)phenyl)-N4-(5-methyl-1H-pyrazol-3-yl)pyrimidine-2,4-diamine] was tested, and the IC50 was 0.075 µM. With `Cc1cc(Nc2nc(Nc3cc(C)c(C4CCN(C(=O)N5CCOCC5)CC4)cc3F)ncc2Cl)n[nH]1` [Compound 111, (4-(4-(5-chloro-4-(5-methyl-1H-pyrazol-3-ylamino)pyrimidin-2-ylamino)-5-fluoro-2-methylphenyl)piperidin-1-yl)(morpholino)methanone] the IC50 was 0.008 µM. For `Cc1cc(Nc2nc(Nc3cc(C)c(C4CCCCN4C(=O)C4(O)CC4)cc3C)ncc2Cl)n[nH]1` (centres unmarked) [Compound 193, (2-(4-(5-chloro-4-(5-methyl-1H-pyrazol-3-ylamino)pyrimidin-2-ylamino)-2,5-dimethylphenyl)piperidin-1-yl)(1-hydroxycyclopropyl)methanone], the IC50 was 0.076 µM. Work on `Cc1cc(Nc2nc(Nc3cc(C)c(C4CCN(C(=O)C5CN(C)C5)CC4)cc3C)ncc2Cl)n[nH]1` [Compound 120, (4-(4-(5-chloro-4-(5-methyl-1H-pyrazol-3-ylamino)pyrimidin-2-ylamino)-2,5-dimethylphenyl)piperidin-1-yl)(1-methylazetidin-3-yl)methanone] yielded an IC50 of 0.025 µM. For `Cc1cc(Nc2nc(Nc3cc(C)c(C4CCN(Cc5noc(C(C)C)n5)CC4)cc3F)ncc2Cl)n[nH]1` [Compound 285, 5-chloro-N2-(2-fluoro-4-(1-((5-isopropyl-1,2,4-oxadiazol-3-yl)methyl)piperidin-4-yl)-5-methylphenyl)-N4-(5-methyl-1H-pyrazol-3-yl)pyrimidine-2,4-diamine], the IC50 was 0.068 µM. `Cc1cc(Nc2nc(Nc3cc(C)c(C4CCN(C(C)C(N)=O)CC4)cc3C)ncc2Cl)n[nH]1` (centres unmarked) [Compound 51, 2-(4-(4-(5-chloro-4-(5-methyl-1H-pyrazol-3-ylamino)pyrimidin-2-ylamino)-2,5-dimethylphenyl)piperidin-1-yl)propanamide] showed an IC50 of 0.009 µM. In the case of `CNC(=O)CN1CCCCC1c1cc(C)c(Nc2ncc(Cl)c(Nc3cc(C)[nH]n3)n2)cc1C` (centres unmarked) [Compound 182, 2-(2-(4-(5-chloro-4-(5-methyl-1H-pyrazol-3-ylamino)pyrimidin-2-ylamino)-2,5-dimethylphenyl)piperidin-1-yl)-N-methylacetamide], the IC50 is reported as 0.019 µM. Work on `Cc1cc(Nc2nc(Nc3cc(C)c(C4CCN(C(=O)[C@@H]5CCCN5C)CC4)cc3C)ncc2Cl)n[nH]1` [Compound 121, (S)-(4-(4-(5-chloro-4-(5-methyl-1H-pyrazol-3-ylamino)pyrimidin-2-ylamino)-2,5-dimethylphenyl)piperidin-1-yl)(1-methylpyrrolidin-2-yl)methanone] yielded an IC50 of 0.017 µM. Molecule `Cc1cc(Nc2nc(Nc3cc(C)c(C4CCN(C(=O)OC(C)C)CC4)cc3F)ncc2Cl)n[nH]1` [Compound 68, isopropyl 4-(4-(5-chloro-4-(5-methyl-1H-pyrazol-3-ylamino)pyrimidin-2-ylamino)-5-fluoro-2-methylphenyl)piperidine-1-carboxylate] has an IC50 of 0.08 µM. Work on `Cc1cc(Nc2nc(Nc3cc(C)c(C4CCN(S(=O)(=O)CCCN5CCOCC5)CC4)cc3C)ncc2Cl)n[nH]1` [Compound 194, 5-Chloro-N^2-(2,5-dimethyl-4-(1-(3-morpholinopropylsulfonyl)piperidin-4-yl)phenyl)-N^4-(5-methyl-1H-pyrazol-3-yl)pyrimidine-2,4-diamine] yielded an IC50 of 0.013 µM. `Cc1cc(Nc2nc(Nc3cc(C)c(C4CCN(CC(N)=O)CC4)cc3F)ncc2Cl)n[nH]1` [Compound 39, 2-(4-(4-(5-Chloro-4-(5-methyl-1H-pyrazol-3-ylamino)pyrimidin-2-ylamino)-5-fluoro-2-methylphenyl)piperidin-1-yl)acetamide] was tested, and the IC50 was 0.019 µM. With `Cc1cc(Nc2nc(Nc3cc(C)c(C4CCN(Cc5ccncc5)CC4)cc3F)ncc2Cl)n[nH]1` [Compound 288, 5-chloro-N2-(2-fluoro-5-methyl-4-(1-(pyridin-4-ylmethyl)piperidin-4-yl)phenyl)-N4-(5-methyl-1H-pyrazol-3-yl)pyrimidine-2,4-diamine] the IC50 was 0.093 µM. Work on `Cc1cc(Nc2nc(Nc3cc(C)c(C4CCNC(=O)C4)cc3C)ncc2Cl)n[nH]1` (centres unmarked) [Compound 151, 4-(4-(5-chloro-4-(5-methyl-1H-pyrazol-3-ylamino)pyrimidin-2-ylamino)-2,5-dimethylphenyl)piperidin-2-one] yielded an IC50 of 0.009 µM. For `CCS(=O)(=O)CCN1CCC(c2cc(F)c(Nc3ncc(Cl)c(Nc4cc(C)[nH]n4)n3)cc2C)CC1` [Compound 57, 5-chloro-N2-(4-(1-(2-(ethylsulfonyl)ethyl)piperidin-4-yl)-2-fluoro-5-methylphenyl)-N4-(5-methyl-1H-pyrazol-3-yl)pyrimidine-2,4-diamine], the IC50 was 0.021 µM. With `Cc1cc(Nc2ncc(Cl)c(Nc3cc(C4CC4)[nH]n3)n2)c(F)cc1C1CCN(CC(N)=O)CC1` [Compound 34, 2-(4-(4-(5-chloro-4-(5-cyclopropyl-1H-pyrazol-3-ylamino)pyrimidin-2-ylamino)-5-fluoro-2-methylphenyl)piperidin-1-yl)acetamide] the IC50 was 0.049 µM. Molecule `Cc1cc(Nc2nc(Nc3cc(C)c(C4CCN(C[C@H](O)C(F)(F)F)CC4)cc3C)ncc2C)n[nH]1` [Compound 179, (S)-3-(4-(2,5-dimethyl-4-(5-methyl-4-(5-methyl-1H-pyrazol-3-ylamino)pyrimidin-2-ylamino)phenyl)piperidin-1-yl)-1,1,1-trifluoropropan-2-ol] has an IC50 of 0.12 µM. With `Cc1cc(Nc2nc(Nc3cc(Cl)c(C4CCN(C(=O)CN(C)C)CC4)cc3Cl)ncc2Cl)n[nH]1` [Compound 77, 1-(4-(2,5-dichloro-4-(5-chloro-4-(5-methyl-1H-pyrazol-3-ylamino)pyrimidin-2-ylamino)phenyl)piperidin-1-yl)-2-(dimethylamino)ethanone] the IC50 was 0.007 µM. `Cc1cc(Nc2nc(Nc3cc(C(F)(F)F)c(C4CCN(CC(N)=O)CC4)cc3F)ncc2Cl)n[nH]1` [Compound 36, 2-(4-(4-(5-chloro-4-(5-methyl-1H-pyrazol-3-ylamino)pyrimidin-2-ylamino)-5-fluoro-2-(trifluoromethyl)phenyl)piperidin-1-yl)acetamide] showed an IC50 of 0.019 µM. For `Cc1cc(Nc2nc(Nc3cc(C)c(C4CCN(C(=O)[C@H]5CCCN5C)CC4)cc3C)ncc2Cl)n[nH]1` [Compound 133, (R)-(4-(4-(5-chloro-4-(5-methyl-1H-pyrazol-3-ylamino)pyrimidin-2-ylamino)-2,5-dimethylphenyl)piperidin-1-yl)(1-methylpyrrolidin-2-yl)methanone], the IC50 was 0.013 µM. Molecule `Cc1cc(Nc2nc(Nc3cc(C)c(C4CCCCN4C)cc3C)ncc2Cl)n[nH]1` (centres unmarked) [Compound 16, 5-chloro-N2-(2,5-dimethyl-4-(1-methylpiperidin-2-yl)phenyl)-N4-(5-methyl-1H-pyrazol-3-yl)pyrimidine-2,4-diamine] has an IC50 of 0.019 µM. `Cc1cc(C2CCN(CC(N)=O)CC2)c(C)cc1Nc1ncc(Cl)c(Nc2cc(C(F)(F)F)[nH]n2)n1` [Compound 217, 2-(4-(4-(5-chloro-4-(5-(trifluoromethyl)-1H-pyrazol-3-ylamino)pyrimidin-2-ylamino)-2,5-dimethylphenyl)piperidin-1-yl)acetamide] gave an IC50 of 0.034 µM. In the case of `CCNC1(C(=O)N2CCC(c3cc(F)c(Nc4ncc(Cl)c(Nc5cc(C)[nH]n5)n4)cc3C)CC2)CCC1` [Compound 176, (4-(4-(5-chloro-4-(5-methyl-1H-pyrazol-3-ylamino)pyrimidin-2-ylamino)-5-fluoro-2-methylphenyl)piperidin-1-yl)(1-(ethylamino)cyclobutyl)methanone], the IC50 is reported as 0.084 µM. `Cc1cc(Nc2nc(Nc3cc(C)c(C4CCN(C(=O)C5(N)CCC5)CC4)cc3C)ncc2Cl)n[nH]1` [Compound 91, (1-aminocyclobutyl)(4-(4-(5-chloro-4-(5-methyl-1H-pyrazol-3-ylamino)pyrimidin-2-ylamino)-2,5-dimethylphenyl)piperidin-1-yl)methanone] showed an IC50 of 0.052 µM. `Cc1cc(Nc2nc(Nc3cc(C)c(C4CCN(C(=O)N5CCN(C)CC5)CC4)cc3F)ncc2Cl)n[nH]1` [Compound 112, (4-(4-(5-chloro-4-(5-methyl-1H-pyrazol-3-ylamino)pyrimidin-2-ylamino)-5-fluoro-2-methylphenyl)piperidin-1-yl)(4-methylpiperazin-1-yl)methanone] showed an IC50 of 0.021 µM. `Cc1cc(Nc2nc(Nc3cc(C)c(C4CCN(C5CCN(S(C)(=O)=O)C5)CC4)cc3F)ncc2Cl)n[nH]1` (centres unmarked) [Compound 301, 5-chloro-N2-(2-fluoro-5-methyl-4-(1-(1-(methylsulfonyl)pyrrolidin-3-yl)piperidin-4-yl)phenyl)-N4-(5-methyl-1H-pyrazol-3-yl)pyrimidine-2,4-diamine] showed an IC50 of 0.038 µM. Work on `Cc1cc(Nc2nc(Nc3cc(C)c(C4CCN(C(=O)c5oc(C)nc5C)CC4)cc3F)ncc2Cl)n[nH]1` [Compound 127, (4-(4-(5-chloro-4-(5-methyl-1H-pyrazol-3-ylamino)pyrimidin-2-ylamino)-5-fluoro-2-methylphenyl)piperidin-1-yl)(2,4-dimethyloxazol-5-yl)methanone] yielded an IC50 of 0.027 µM.
